As a reminder, the EC50 is the concentration that produces a half-maximal response.

The target of one data set is T1, DENV NS4B (Dengue virus type 3, UniProt P27915).
T1 construct: Overlaid ^19F-NMR spectra of JNJ-1802 in absence (blue) and presence of DENV NS4B (red)
Nature of the data set: 19F-NMR binding, DENV NS4B. Conditions: compound 50 µM, NS4B 5 µM.

The subject of data set [1] is ZIKV PLCal. Kind of data set: CPE-based anti-ZIKV concentration-response assay (96-well). The class given is cell-based, Zika virus. Conditions: Vero 76, MOI 0.05, 3-day incubation, CellTiter-Glo, read-out: EC50-CPE ZIKV-PLCal.
A further data set has as its system ZIKV-RLuc. Nature of the data set: microbe, parasite or virus in culture. The data set is classed as cell-based, Zika virus. Conditions: wild type ZIKV-RLuc, Vero 76, MOI 0.1, three days, read-out: EC50 ZIKV-RLuc.
The next data set relates to CHIKV. Nature of the data set: microbe, parasite or virus in culture. The class given is cell-based.
For a further data set, the system named is ZIKV MR766. Nature of the data set: microbe, parasite or virus in culture. As to conditions: CPE-protection. The class given is cell-based.
The next data set deals with ZIKV DAK-41525-MA. Kind of data set: CPE-protection assay, ZIKV DAK-41525-MA. The data set is classed as cell-based, Zika virus.
The next data set has as its system ZIKV Ib H30656. Kind of data set: microbe, parasite or virus in culture. The data set is classed as cell-based. As to conditions: CPE-protection.
The next data set relates to ZIKV FLR. Kind of data set: microbe, parasite or virus in culture. Conditions: CPE-protection. The class given is cell-based.
A further data set concerns ZIKV PRVABC59. Kind of data set: microbe, parasite or virus in culture. The class given is cell-based. Conditions: CPE-protection.
In another data set the test system is DENV Type 4 H241. Nature of the data set: microbe, parasite or virus in culture. The data set is classed as cell-based. Conditions: read-out: EC50 DENV Type 4 H241.
In a further data set the test system is YFV 17D. Nature of the data set: microbe, parasite or virus in culture. The class given is cell-based. As to conditions: CPE-protection.
The next data set relates to JEV SA-14. Kind of data set: CPE-protection assay, JEV. The class given is cell-based, Japanese encephalitis virus.
The next data set has as its system WNV NY-99. Nature of the data set: CPE-protection assay, WNV. The class given is cell-based, West Nile virus.
In data set [2] the test system is ZIKV PLCal. Nature of the data set: Virus yield (titer) reduction assay in Vero 76 cells. As to conditions: 5 µM, Vero 76, 0.05 m.o.i., two days. The data set is classed as cell-based, Zika virus.
The subject of data set [3] is ZIKV PLCal. Nature of the data set: Virus yield (titer) reduction assay in Huh 7.5.1 cells. The data set is classed as cell-based, Zika virus. As to conditions: 1 µM.
Another data set relates to ZIKV-RLuc NS4B V241L. The class given is cell-based, Zika virus.
The next data set deals with ZIKV-RLuc NS4B A245T. The class given is cell-based, Zika virus.
The subject of a further data set is ZIKV-RLuc NS4B V248G. The data set is classed as cell-based, Zika virus.
A further data set has as its system ZIKV. Kind of data set: Combination treatment and synergy scoring, CPE-based anti-ZIKV assay. As to conditions: Zika virus; single agent, Fig 6A; read-out: EC50 as a single agent in the dose-response anti-ZIKV assay. The class given is cell-based.
A further data set concerns ZIKV-RLuc NS4B mutants. The class given is cell-based, Zika virus.
The target in the next data set is NS3-NS4B interaction (Zika virus, UniProt A0A142I5B9). The class given is cell-based.
The subject of data set [4] is cleavage between NS4B and NS5. Kind of data set: NS4B-NS5 polyprotein processing. The class given is cell-based, Zika virus. Conditions: HEK-293T.
The test system of the next data set is IFN-α/β induction. Kind of data set: Interferon response measurement in ZIKV-infected Huh 7.5.1 cells. The class given is cell-based. As to conditions: Huh 7.5.1, ZIKV MOI 3, 24 h.p.i. Here is the method:
Huh 7.5.1. cells were infected with ZIKV with/without test compound treatment, and the supernatants were harvested at 24 h.p.i. and tested for interferon- α/β (IFN- α/β) following the manufacturer’s protocol. HEK-Blue IFN-α/β cells (5000 cells/well) were incubated in 96-well plates with 20 µL of test samples for overnight. The following day, 20 µL of the cell supernatant from the HEK-Blue IFN-α/β cells were further incubated with 180 µL of pre-warmed Quanti-blue SEAP reagent (Invivogen) for 2 hours and the O.D. A620 was measured using a Cytation 1 (Agilent). As a positive and negative control, recombinant human IFN-α2b (InvivoGen, 30 pg/ml) and conditioned media from mock-infected Huh 7.5.1. were used.

A further data set has as its system ZIKV viral E protein. Kind of data set: Viral E protein expression by fluorescence microscopy (4G2 antibody). The class given is cell-based, Zika virus. As to conditions: ZIKV-infected Vero76, 2 days post infection.
The nature of another data set: in vitro. Conditions: African green monkey, CC50 Vero76.
A further data set has as its target T2, miniRFP-NS4B (Zika virus, UniProt A0A142I5B9).
T2 construct: 2K-miniRFPnano3-NS4B polypeptide-expressing plasmid (miniRFP-NS4B, hereafter); expressed in transfected cells; host or cells: HEK-293T
Nature of the data set: Flow cytometric binding assay, miniRFP-NS4B expressing cells. The data set is classed as cell-based. As to conditions: 293T cells, vs miniRFP alone, miniRFP-NS5 or NS4B-negative cells. Here is the method:
HEK-293T cells plated in 12-well plates at 70–80% confluency were transfected with plasmid DNA (1 µg/well) using PEI (Polyethylenimine, 3 µg/well) following a protocol described elsewhere. At 24 hours post transfection, cells were harvested by trypsinization, fixed with 2% PFA, and permeabilized with […]. After blocking for one hour with Intercept Protein-Free blocking buffer (Li-Cor), cells were incubated with MWAC-4163 in PBS with 10% blocking buffer for 30 minutes. After extensive washing, cells were analyzed on an Accuri C6 flow cytometer (BD Sciences) using channel 1 for FAM (ex488 nm/em533) and channel 4 (ex640 nm/em675LP) for miniRFP.
For orientation: Flow cytometry measures light scatter and fluorescence of single cells or particles in a stream.

Data set [5] concerns ZIKV PLCal. Kind of data set: CPE-based phenotypic HTS assay (1536-well). The class given is cell-based, Zika virus. Conditions: n = 10, uridine supplemented. Here is the method:
To begin, 600 cells at 2.5 μL/ well of Vero 76 cells in MEM-E supplemented with 10% FBS and 1X Antibiotic-Antimycotic (Gibco 15240-062) were dispensed to 1536 well plate (Aurora EBB0-40000A) and incubated at 37 °C in humidified incubators with 5% CO2 for 24 hours. After that, 30 nL of each compound or vehicle (75% DMSO) were transferred using pintool and further incubated for 2 hours. […] For the negative control wells (N = 24/plate), only virus dilution media was dispensed. Positive control wells contained virus and cells (N = 24/plate). After incubation at 37 °C in humidified incubators with 5% CO2 for 72 hours, plates were incubated for 10 minutes at room temperature, followed by dispensing 5 μL/well CellTiter Glo (Promega). Luminescent signal was detected using PHERAstar FSX (BMG Labtech).
In the primary screen, compounds were tested at a single concentration in singlicate at a final nominal concentration of 6.95 μM. Raw assay data was imported into UF Scripps’ corporate database and subsequently analyzed using Symyx software. Activity of each compound was calculated on a per-plate basis using the following equation: Percent Response of compound = 100*((Test Well-Median Data Wells)/ (Median High Control - Median Data Wells)). […]

Structures are written as SMILES. Where two headings read alike, the source gives them in different places.

For `COc1cc(N[C@H](C(=O)c2c[nH]c3ccc(OC(F)(F)F)cc23)c2ccc(Cl)cc2OC)cc(S(C)(=O)=O)c1` [JNJ-1802], the “19F-NMR spectrum change with DENV NS4B” value on DENV NS4B was “a chemical shift perturbation and significant line broadening was seen”.
Take `CC(C)(C)c1ccc(C(=O)NC2CCCC2)cc1` [MWAC-3475]: the EC50 with ZIKV PLCal [1] (Zika virus, 72 h) was 630 ± 650 nM; in the data set with ZIKV-RLuc (Zika virus, Vero 76, 72 h) it was 390 nM; with ZIKV-RLuc it was 340 ± 280 nM; with CHIKV (Chikungunya virus, Vero 76, read-out: EC50-CPE CHIKV), more than 50 µM; in the data set on ZIKV MR766 (Zika virus), 5.93 ± 1.26 µM; in the data set with ZIKV DAK-41525-MA (Zika virus) it was 1540 ± 270 nM. The EC50 with ZIKV Ib H30656 (Zika virus) is 1010 ± 210 nM; with ZIKV FLR (Zika virus), 1130 ± 110 nM; with ZIKV PRVABC59 (Zika virus), 910 ± 200 nM; in the data set with DENV Type 4 H241 (Dengue virus), more than 50000 nM; in the data set on YFV 17D (Yellow fever virus), more than 50000 nM; in the data set with JEV SA-14 (Japanese encephalitis virus), more than 50000 nM. The half-maximal effective concentration (EC50) is more than 50000 nM in the data set on WNV NY-99 (West Nile virus); 21.4 µM in the data set with ZIKV-RLuc NS4B V241L; 2290 nM with ZIKV-RLuc NS4B A245T; 5120 nM with ZIKV-RLuc NS4B V248G; 616 nM with ZIKV. The “reduction in progeny virus titers” value in the data set on ZIKV PLCal [2] is more than 1000 fold. Further, the “VYR: Virus Yield reduction (Log 10)” value in the data set with ZIKV PLCal [3] is on record as -0.36 ± 0.07 Log 10. In the data set on ZIKV-RLuc NS4B V241L, the “Fold-increase / fold-change of EC50, NS4B V241L vs wild type” value came to 55.24. Moreover, the “Fold-increase / fold-change of EC50, NS4B A245T vs wild type” value in the data set on ZIKV-RLuc NS4B A245T is listed as 5.91. Moreover, in the data set with ZIKV-RLuc NS4B V248G, the “Fold-increase / fold-change of EC50, NS4B V248G vs wild type” value is 13.20. In the data set with ZIKV-RLuc NS4B mutants, the “fold decrease in potency by NS4B mutations” value is reported as 6- to 55 fold. The “disruption of NS3-NS4B interaction” value at NS3-NS4B interaction is “did not inhibit either of these steps”. In data set [4], the “effect on cleavage between NS4B and NS5” value is “no such effect was detected”. Moreover, the “induction of interferon in the infected cells” value in the data set with IFN-α/β induction is “did not inhibit either of these steps”. Besides, in the data set with ZIKV viral E protein, the “intensity and abundance of viral E protein (4G2 antibody)” value is recorded as “decreased in a concentration-dependent manner”. Besides, the values for the CC50 in the data set with Vero76 (African green monkey) and in the data set “in vitro” were 28.1 ± 6.5 µM and 28 µM, respectively.
Take `COc1ccc([C@@H](C)NC(=O)c2ccc(C(C)(C)C)cc2)cc1` [MWAC-4169, (R)-4-(tert-butyl)-N-(1-(4-methoxyphenyl)ethyl)benzamide]: the “binding to cells expressing miniRFP-NS4B (FAM-positive frequency)” value on miniRFP-NS4B was “significantly higher degree of binding”.
With `C#C[C@@]1(O)[C@H](O)[C@@H](CO)O[C@H]1n1ccc2c(N)ncnc21` [NITD-008, reference compound], the EC50 is 360 ± 270 nM with ZIKV PLCal [1]; 310 ± 130 nM in the data set on ZIKV-RLuc; more than 50 µM in the data set with CHIKV (Vero 76, read-out: EC50-CPE CHIKV); 1.76 ± 0.2 µM in the data set with ZIKV MR766; 890 ± 220 nM in the data set with ZIKV DAK-41525-MA; 1430 ± 230 nM in the data set on ZIKV Ib H30656. In addition, the half-maximal effective concentration (EC50) was 1240 ± 90 nM with ZIKV FLR; 690 ± 110 nM in the data set on ZIKV PRVABC59; 180 ± 120 nM in the data set with DENV Type 4 H241 (CPE-protection); 270 ± 120 nM in the data set on YFV 17D; 1850 ± 1100 nM in the data set on JEV SA-14; 3000 ± 2500 nM with WNV NY-99. The EC50 came out at 0.76 µM in the data set with ZIKV-RLuc NS4B V241L (ZIKV RLuc assay), 280 nM in the data set with ZIKV-RLuc NS4B A245T (ZIKV RLuc assay), 200 nM in the data set with ZIKV-RLuc NS4B V248G (ZIKV RLuc assay) and 800 ± 37 nM with ZIKV PLCal [5]. Besides, in the data set on ZIKV-RLuc NS4B V241L (ZIKV RLuc assay), the “Fold-increase / fold-change of EC50, NS4B V241L vs wild type” value came out at 3.44. The “Fold-increase / fold-change of EC50, NS4B A245T vs wild type” value with ZIKV-RLuc NS4B A245T (ZIKV RLuc assay) worked out at 1.29. In the data set on ZIKV-RLuc NS4B V248G (ZIKV RLuc assay), the “Fold-increase / fold-change of EC50, NS4B V248G vs wild type” value came to 0.93. The compound also displayed a CC50 in the data set with Vero76 of 19 ± 10.3 µM.

Values taken from PMC13065080, “Discovery of a potent anti-Zika virus benzamide series targeting the viral protein NS4B” (PLOS Pathogens, 2026).
